Test results: ChEMBL document CHEMBL1149710, “Two new alkaloids and active anti-hepatitis B virus constituents from Hypserpa nitida” (Bioorg Med Chem Lett, 2007)

Experiments:
Hepatitis B virus [1] = test: Antiviral activity against HBV transfected Hep G2.2.15 cells assessed as inhibition of e antigen HBsAg secretion; type: functional, organism-based; details: HepG2 2.2.15
[2] = Selectivity index, ratio of CC50 for human Hep G2.2.15 cells to IC50 for surface antigen HBsAg secretion in HBV transfected Hep G2.2.15 cells; type: functional
[3] = Selectivity index, ratio of CC50 for human Hep G2.2.15 cells to IC50 for HBV e antigen secretion in HBV transfected Hep G2.2.15 cells; type: functional
[4] = Cytotoxicity against human Hep G2.2.15 cells; type: functional; details: HepG2 2.2.15
Hepatitis B virus [5] = test: Antiviral activity against HBV transfected Hep G2.2.15 cells assessed as inhibition of surface antigen HBsAg secretion; type: functional, organism-based; details: HepG2 2.2.15

IC50 (Hepatitis B virus [1])	IC50 (Hepatitis B virus [5])	SMILES	Ratio CC50/IC50 [2]	Ratio CC50/IC50 [3]	CC50 [4]
> 3850 µM	450 µM	COC1=CC(=O)[C@]2([C@@H](Cl)C[C@]34NCC[C@]23CC(=O)C(OC)=C4OC)[C@H]1O [DAURICUMIDINE]	4.13	<1	1860 µM
> 3620 µM	> 3620 µM	COc1ccc2c3c1-c1c(ccc(O)c1O)C[C@@H]3[N+](C)(C)CC2 [HYPSERPANINE B]	–	–	> 3620 µM
25900 µM	11700 µM	Nc1ccn([C@@H]2CS[C@H](CO)O2)c(=O)n1 [LAMIVUDINE]	2.56	1.16	30000 µM
> 2930 µM	> 2930 µM	COC1=CC(=O)[C@]2(CC[C@@]34C(OC)=C(OC)C(=O)C[C@]32CCN4C)[C@@H]1O [DECHLOROACUTUMINE]	–	–	2930 µM
> 2890 µM	2020 µM	COC1=CC(=O)[C@@]2([C@@H]1O)[C@@H](Cl)C[C@]13NCC[C@]21CC(=O)C(OC)=C3OC [ACUTUMIDINE]	>1.31	–	> 2890 µM
> 3680 µM	> 3680 µM	COc1cc2c(cc1O)C[C@H]1c3c(cc(OC)c(O)c3-2)CC[N+]1(C)C [LAURIFOLINE]	–	–	> 3680 µM
> 4180 µM	42 µM	COc1cc2c3c(c1OC)C1(C=CC(=O)C=C1)C[C@H]3N(C)CC2 [PRONUCIFERINE]	1.19	<1	50 µM
3690 µM	8 µM	COc1cc2c3c(c1O)C1(C=CC(=O)C=C1)CC3N(C)CC2 (centres undefined) [GLAZIOVINE]	<1	<1	7 µM
> 4110 µM	> 4110 µM	COc1ccc2c(c1O)-c1c(O)c(OC)cc3c1[C@H](C2)[N+](C)(C)CC3 [MAGNOFLORINE]	–	–	> 4110 µM
> 2870 µM	1420 µM	CCN(CC)C1=CC(=O)[C@]2([C@@H](Cl)C[C@@]34C(OC)=C(OC)C(=O)C[C@@]23CCN4C)[C@H]1O [HYPSERPANINE A]	1.57	<1	2230 µM

SMILES	IC50 (Hepatitis B virus [1])	IC50 (Hepatitis B virus [5])	Ratio CC50/IC50 [2]	Ratio CC50/IC50 [3]	CC50 [4]
COc1ccc(C[C@H]2c3cc(O)c(OC)cc3CCN2C)cc1O [(S)-RETICULINE]	> 2990 µM	2140 µM	<1	<1	1910 µM
COc1c(O)cc2c(c1OC)C=[N+](C)CC2 [PHENOLBETAIN]	> 4520 µM	2370 µM	<1	<1	2180 µM
COC1=CC(=O)[C@@]2([C@@H]1O)[C@@H](Cl)C[C@@]13C(OC)=C(OC)C(=O)C[C@@]21CCN3C [ACUTUMINE]	> 2980 µM	> 2990 µM	–	–	> 2990 µM
COC1=CC(=O)[C@]2([C@@H](Cl)C[C@@]34C(OC)=C(OC)C(=O)C[C@@]23CCN4C)[C@H]1O [DAURICUMINE]	> 3290 µM	1310 µM	1.67	<1	2190 µM
